Results on 27 compounds are retold here after ChEMBL document CHEMBL5518177, “Discovery of GPX4 inhibitors through FP-based high-throughput screening” (Eur J Med Chem, 2024).

Experiment [1] is described as follows: Binding affinity to N-terminal 6His-TEV-tagged recombinant human GPX4-U46C-C10A-C66A mutant (Met1 to Phe170 residues) expressed in Escherichia coli BL21 (DE3) cells incubated for 20 mins in presence of FITC-labeled peptide by fluorescence polarization based competitive binding assay. It is filed as cell-based. A general note: Fluorescence polarisation rises when a labelled molecule tumbles more slowly, as on binding a larger partner.

Experiment [2] can be described thus: Inhibition of N-terminal 6His-TEV-tagged recombinant human GPX4-U46C-C10A-C66A mutant (Met1 to Phe170 residues) expressed in Escherichia coli BL21 (DE3) cells incubated for 20 mins by fluorescence polarization based high-throughput screening assay.
Experiment [3] is filed under the species Homo sapiens. As to the kind of experiment: Inhibition of N-terminal 6His-TEV-tagged recombinant human GPX4-U46C-C10A-C66A mutant (Met1 to Phe170 residues) expressed in Escherichia coli BL21 (DE3) cells at 1 to 100 uM incubated for 20 mins by fluorescence polarization based high-throughput screening assay. The conditions noted are these: dose 1-100 µM.
Experiment [4] can be described thus: Inhibition of N-terminal 6His-TEV-tagged recombinant human GPX4-U46C-C10A-C66A mutant (Met1 to Phe170 residues) expressed in Escherichia coli BL21 (DE3) cells using tert-butyl hydroperoxide as substrate preincubated for 10 mins in presence of NADPH and GSH followed by substrate addition and measured after 30 mins by absorbance based plate reader analysis.
Experiment [5] in a line: Binding affinity to N-terminal 6His-TEV-tagged recombinant human GPX4-U46C-C10A-C66A mutant (Met1 to Phe170 residues) expressed in Escherichia coli BL21 (DE3) cells assessed as dissociation constant incubated for 10 mins by microscale thermophoresis assay. For orientation: In MST a laser heats a spot of the sample, and binding alters the fluorescence response.
The species named for experiment [6] is Homo sapiens. Description: Inhibition of N-terminal 6His-TEV-tagged recombinant human GPX4-U46C-C10A-C66A mutant (Met1 to Phe170 residues) expressed in Escherichia coli BL21 (DE3) cells using tert-butyl peroxide as substrate assessed as Vmax at 10 uM preincubated for 10 mins in presence of NADPH and GSH followed by substrate …. Conditions: time 40.0 min.
Experiment [7] is filed under the species Homo sapiens. Description: Inhibition of N-terminal 6His-TEV-tagged recombinant human GPX4-U46C-C10A-C66A mutant (Met1 to Phe170 residues) expressed in Escherichia coli BL21 (DE3) cells using tert-butyl peroxide as substrate assessed as Vmax at 20 uM preincubated for 10 mins in presence of NADPH and GSH followed by substrate addition and measured after 30 mins by absorbance based plate reader analysis (reference value: 0.556 +/- 0.058 nM/min). Conditions: time 40.0 min.

The species named for experiment [8] is Homo sapiens. Description: Inhibition of N-terminal 6His-TEV-tagged recombinant human GPX4-U46C-C10A-C66A mutant (Met1 to Phe170 residues) expressed in Escherichia coli BL21 (DE3) cells using tert-butyl peroxide as substrate assessed as Vmax at 30 uM preincubated for 10 mins in presence of NADPH and GSH followed by substrate addition and measured after 30 mins by absorbance based plate reader analysis (reference value: 0.556 +/- 0.058 nM/min). Conditions: time 40.0 min.

The species named for experiment [9] is Homo sapiens. Description: Inhibition of N-terminal 6His-TEV-tagged recombinant human GPX4-U46C-C10A-C66A mutant (Met1 to Phe170 residues) expressed in Escherichia coli BL21 (DE3) cells using tert-butyl peroxide as substrate assessed as Vmax at 40 uM preincubated for 10 mins in presence of NADPH and GSH followed by substrate addition and measured after 30 mins by absorbance based plate reader analysis (reference value: 0.556 +/- 0.058 nM/min). The conditions noted are these: time 40.0 min.

Experiment [10] is filed under the species Homo sapiens. Description: Inhibition of N-terminal 6His-TEV-tagged recombinant human GPX4-U46C-C10A-C66A mutant (Met1 to Phe170 residues) expressed in Escherichia coli BL21 (DE3) cells using tert-butyl peroxide as substrate assessed as Vmax at 50 uM preincubated for 10 mins in presence of NADPH and GSH followed by substrate addition and measured after 30 mins by absorbance based plate reader analysis (reference value: 0.556 +/- 0.058 nM/min). The conditions noted are these: time 40.0 min.

The species named for experiment [11] is Homo sapiens. As to the kind of experiment: Inhibition of N-terminal 6His-TEV-tagged recombinant human GPX4-U46C-C10A-C66A mutant (Met1 to Phe170 residues) expressed in Escherichia coli BL21 (DE3) cells using tert-butyl peroxide as substrate assessed as Km at 10 uM preincubated for 10 mins in presence of NADPH and GSH followed by substrate …. The conditions noted are these: time 40.0 min.

For experiment [12], the species on record is Homo sapiens. Description: Inhibition of N-terminal 6His-TEV-tagged recombinant human GPX4-U46C-C10A-C66A mutant (Met1 to Phe170 residues) expressed in Escherichia coli BL21 (DE3) cells using tert-butyl peroxide as substrate assessed as Km at 20 uM preincubated for 10 mins in presence of NADPH and GSH followed by substrate addition and measured after 30 mins by absorbance based plate reader analysis (reference value: 36.04 +/- 7.80 microM). Conditions: time 40.0 min.

The species named for experiment [13] is Homo sapiens. As to the kind of experiment: Inhibition of N-terminal 6His-TEV-tagged recombinant human GPX4-U46C-C10A-C66A mutant (Met1 to Phe170 residues) expressed in Escherichia coli BL21 (DE3) cells using tert-butyl peroxide as substrate assessed as Km at 30 uM preincubated for 10 mins in presence of NADPH and GSH followed by substrate addition and measured after 30 mins by absorbance based plate reader analysis (reference value: 36.04 +/- 7.80 microM). The conditions noted are these: time 40.0 min.

The species named for experiment [14] is Homo sapiens. Description: Inhibition of N-terminal 6His-TEV-tagged recombinant human GPX4-U46C-C10A-C66A mutant (Met1 to Phe170 residues) expressed in Escherichia coli BL21 (DE3) cells using tert-butyl peroxide as substrate assessed as Km at 40 uM preincubated for 10 mins in presence of NADPH and GSH followed by substrate addition and measured after 30 mins by absorbance based plate reader analysis (reference value: 36.04 +/- 7.80 microM). Conditions: time 40.0 min.

For experiment [15], the species on record is Homo sapiens. Description: Inhibition of N-terminal 6His-TEV-tagged recombinant human GPX4-U46C-C10A-C66A mutant (Met1 to Phe170 residues) expressed in Escherichia coli BL21 (DE3) cells using tert-butyl peroxide as substrate assessed as Km at 50 uM preincubated for 10 mins in presence of NADPH and GSH followed by substrate addition and measured after 30 mins by absorbance based plate reader analysis (reference value: 36.04 +/- 7.80 microM). The conditions noted are these: time 40.0 min.

For experiment [16], the species on record is Homo sapiens. Description: Non-covalent binding to N-terminal 6His-TEV-tagged recombinant human GPX4-U46C-C10A-C66A mutant (Met1 to Phe170 residues) expressed in Escherichia coli BL21 (DE3) cells by mass spectrum analysis.
For experiment [17], the species on record is Homo sapiens. Description: Reversible inhibition of N-terminal 6His-TEV-tagged recombinant human GPX4-U46C-C10A-C66A mutant (Met1 to Phe170 residues) expressed in Escherichia coli BL21 (DE3) cells by mass spectrum analysis.

The structures appear in SMILES notation. The source made the active and inactive calls. The rule behind the calls is not given here.

As to `Cc1c(NCS(=O)(=O)O)c(=O)n(-c2ccccc2)n1C`, in experiment [1], the IC50 – broadly, the midpoint of a concentration-inhibition curve – turned out to be 2.37 µM. Still for that read-out and setting: next, `Cc1c(NCS(=O)(=O)O)c(=O)n(C2CCCCC2)n1C`: 2.53 µM; `Cc1c(NCS(=O)(=O)O)c(=O)n(-c2ccccc2-c2ccoc2)n1C`: 5.74 µM. The same measure, in the same setting: under `Cc1c(NCS(=O)(=O)O)c(=O)n(-c2cccc(Br)c2)n1C` stands 10.3 µM; under `CCCc1c(NCS(=O)(=O)O)c(=O)n(-c2ccccc2)n1C`, more than 100 µM.

Regarding `Cc1c(NCS(=O)(=O)O)c(=O)n(-c2ccccc2Br)n1C`, in experiment [1], the IC50 amounted to 12.1 µM. On to `Cn1c(CO)c(NCS(=O)(=O)O)c(=O)n1-c1ccccc1`, for which, in experiment [1], the IC50 was determined as 22.7 µM. As for `Cc1c(NCS(=O)(=O)O)c(=O)n(-c2ccccc2-c2ccccc2)n1C`, the half-inhibitory concentration (IC50) in experiment [1] turned out to be 4.21 µM. Turning to `O=C(O)[C@H](O)Cc1ccc(O)c(O)c1`, in [2], the half-inhibitory concentration (IC50) came out at 6.54 µM. In addition, in the experiment filed under Homo sapiens [3], the inhibition result is “Active”. On to `Cc1c(N(C)CS(=O)(=O)O)c(=O)n(-c2ccccc2)n1C` [DIPYRONE SODIUM], for which the figures for the IC50 in [1], in experiment [2] and in experiment [4] were 4.75 µM, 1.4 µM and 31.1 µM, respectively. Further, the Kd – broadly, the free concentration of one partner at which half of the binding sites on the other are occupied at equilibrium, for simple one-to-one binding – in experiment [5] was 5.23 µM. In addition, the maximal velocity (Vmax) – broadly, the rate approached at saturating substrate – in the experiment filed under Homo sapiens [6] was found to be 0.439 nM/min; in the experiment filed under Homo sapiens [7], 0.361 nM/min; in the experiment listed under Homo sapiens [8], 0.345 nM/min; in the experiment listed under Homo sapiens [9], 0.306 nM/min; in the experiment filed under Homo sapiens [10], 0.289 nM/min. Besides, the Michaelis constant (Km) (in general, the concentration of substrate that gives half-maximal velocity) in the experiment listed under Homo sapiens [11] is 23.4 µM; in the experiment listed under Homo sapiens [12], 17.2 µM; in the experiment filed under Homo sapiens [13], 15.7 µM; in the experiment listed under Homo sapiens [14], 12.1 µM; in the experiment listed under Homo sapiens [15], 11.9 µM. Besides, in the experiment listed under Homo sapiens [3], the inhibition result is “Active”. In the experiment filed under Homo sapiens [16], the outcome was Active. Also, the inhibition result in the experiment filed under Homo sapiens [17] is “Dose-Dependent Effect”. On to `Cc1c(NCS(=O)(=O)O)c(=O)n(-c2cccc(-c3ccccc3)c2)n1C`, for which, in experiment [1], the half-maximal inhibitory concentration (IC50) is more than 100 µM. On to `CNC(=O)CN(C)c1c(C)n(C)n(-c2ccccc2)c1=O`, for which the IC50 in experiment [1] is more than 100 µM. Still for that read-out and setting: under `Cc1c(NCS(=O)(=O)O)c(=O)n(-c2cccc(-c3ccc(Br)cc3)c2)n1C` stands 9.63 µM.

`CCc1c(NCS(=O)(=O)O)c(=O)n(-c2ccccc2)n1C`: in [1], the half-maximal inhibitory concentration (IC50) was more than 100 µM. On to `C=CC1=C(C)C(=O)N/C1=C\c1[nH]c(Cc2[nH]c(/C=C3\NC(=O)C(C)=C3C=C)c(C)c2CCC(=O)O)c(CCC(=O)O)c1C`, for which the 50% inhibitory concentration (IC50) in [2] amounted to 4.58 µM. For the same compound, in the experiment filed under Homo sapiens [3], the inhibition result was “Active”.

With `Cc1c(NCS(=O)(=O)O)c(=O)n(-c2ccccc2)n1C(C)C`, the concentration for half-maximal inhibition (IC50) in [1] is more than 100 µM.

In the case of `Cc1c(NCS(=O)(=O)O)c(=O)n(-c2ccccn2)n1C`, the IC50 in [1] was 3.54 µM. Still for that read-out and setting: next, `Cc1c(NCC(=O)O)c(=O)n(-c2ccccc2)n1C`: more than 100 µM; `Cc1c(NCS(=O)(=O)O)c(=O)n(-c2ccc(-c3ccccc3)cc2)n1C`: more than 100 µM; `CC(C)c1c(NCS(=O)(=O)O)c(=O)n(-c2ccccc2)n1C`: 4.6 µM.

As for `N[C@@H](CO)C(=O)NNCc1ccc(O)c(O)c1O`, in [2], the concentration for half-maximal inhibition (IC50) came out at 7.52 µM. Moreover, the inhibition entry in the experiment filed under Homo sapiens [3] was “Active”. For `O=c1oc2cc(O)ccc2s1` [TIOXOLONE] the same measures were 5.18 µM and “Active”. Take `Cn1c(C2CC2)c(NCS(=O)(=O)O)c(=O)n1-c1ccccc1`: in experiment [1], the IC50 was found to be 4.65 µM.

As for `Cc1c(NCS(=O)(=O)O)c(=O)n(-c2ccc(-c3ccoc3)cc2)n1C`, the IC50 in experiment [1] was found to be 8.51 µM. The same measure, in the same setting: under `Cc1c(NCS(=O)(=O)O)c(=O)n(-c2cccc(-c3ccoc3)c2)n1C` stands 5.89 µM. As to `Cc1c(S(=O)(=O)O)oc2c1C(=O)C(=O)c1c-2ccc2c1CCCC2(C)C` [SODIUM TANSHINONE IIA SULFONATE], in experiment [2], the IC50 came to 13.8 µM. Further, in the experiment listed under Homo sapiens [3], the inhibition entry is “Active”. For `CCCn1c(C)c(NCS(=O)(=O)O)c(=O)n1-c1ccccc1`, in [1], the IC50 came out at 6.02 µM.
